What was measured:
Type in all cases: cell-based
[1] = tested on: MCF-7 human breast adenocarcinoma cells; assay: MTT antiproliferative assay, MCF-7; conditions: for IC50: Homo sapiens, MCF7, 72 h, read-out: IC50 (µM) ± S.D. MCF-7 Breast Cancer; for Selectivity index (IC50 normal fibroblast/IC50 MCF-7): fibroblasts/breast cancer, second value of the SI cell
Experimental: (§1) The proliferation inhibitory activities of the carboxamide derivatives 4-16 were tested in vitro using the MTT assay against the human cancer MCF-7, K-562, and HCT-116 cell lines in addition to normal human cells (dermal fibroblasts) to evaluate their putative selective cytotoxic activities. […] The human colorectal carcinoma (HCT-116), human breast adenocarcinoma (MCF-7), human chronic myelogenous leukemia (K-562), and human dermal fibroblast normal cell lines were purchased from were purchased from the American Type Culture Collection (ATCC) (Manassas, VA, USA) and stored in liquid nitrogen. Cells were passaged twice weekly upon reaching 70–80% confluency, and only low passage numbers (≤ 10) were used in all experiments. Mycoplasma contamination was monitored using the Lonza MycoAlert™ mycoplasma detection kit. Cells were sub-cultured and maintained with appropriate media: RPMI-1640 medium (Buffalo, New York, USA) was used to grow MCF-7, K-562 and HCT-116 cancer cells, while fibroblast cells were cultured in Iscove’s Modified Dulbecco’s medium (IMDM) (EuroClone S.p.A., Pero, MI, Italy). Both media were supplemented with 10% (v/v) heat-inactivated fetal bovine serum (FBS) (Gibco, CA, USA), 2 mM of L-Glutamine, 100 units/mL of Penicillin, and 100 μg/mL of Streptomycin (EuroClone, Italy). Cells were maintained at 37 °C in a humidified incubator with 5% CO2 (NuAire, Plymouth, MN, USA). The MTT colorimetric assay utilized in this study was previously described and adapted from Mosmann. The MTT regent [3-(4,5-dimethylthiazol-2-yl)-2,5-diphenyl tetrazolium bromide] was employed to evaluate the antiproliferative activities of carboxamides 4-16 against MCF-7, K-562, HCT-116, and dermal normal fibroblast cell lines. Cells (6–8 × 10^3 per well, 180 µL) were seeded into 96-well plates (Corning, New York, USA) and allowed to adhere overnight at 37 °C in a humidified 5% CO₂ incubator. Fresh top stock solutions of the test compounds (10 mM in DMSO) were then freshly prepared, followed by serial dilutions in the appropriate culture media before being added to the seeded cells. […] Initial screening for potential antiproliferative activity was carried out using two concentration points (10 µM and 50 µM) in triplicate over a 72-hour incubation period. […] Following 72 h of exposure, MTT solution (2 mg/mL in PBS, 50 µL per well) was added, and plates were incubated for an additional 4 h. The supernatant in each well was then removed, and the resulting formazan crystals were solubilized by adding DMSO (150 µL per well). Absorbance, measured as the optical density (OD), was recorded at 570 nm using a microplate reader (Thermo Fisher Scientific, Waltham, MA, USA). The detected signal intensity corresponds to metabolic activity, which directly correlates with the viable cell number. All experiments were performed in triplicate, and the results are presented as the mean ± standard deviation (SD). The IC50 values for antiproliferative activity were calculated using nonlinear regression analysis in GraphPad Prism software (GraphPad Prism version 9.0.0 for Windows, GraphPad Software, San Diego, California USA). Additionally, a two-way ANOVA test was conducted to analyze significant variations in IC50 values, with a significant level set at α = 0.05.

[2] = tested on: human dermal fibroblast normal cell line; assay: MTT assay, normal dermal fibroblasts; conditions: 72 h treatment, read-out: IC50 (µM) ± S.D. Dermal Fibroblast Normal
Experimental: as §1

[3] = tested on: K-562 human chronic myelogenous leukemia cells; assay: MTT antiproliferative assay, K-562; conditions: for IC50: Homo sapiens, K562, 72 h, MTT, 72 h treatment, mean ± SD, read-out: IC50 (µM) ± S.D. K-562 Leukemia; for Selectivity index (IC50 normal fibroblast/IC50 K-562): fibroblasts/leukemia, third value of the SI cell
Experimental: as §1

[4] = tested on: HCT-116 human colorectal carcinoma cells; assay: MTT antiproliferative assay, HCT-116; conditions: for IC50: Homo sapiens, HCT-116, MTT, 72 h treatment, mean ± SD, read-out: IC50 (µM) ± S.D. HCT-116 Colon Cancer; for Selectivity index (IC50 normal fibroblast/IC50 HCT-116): fibroblasts/colon cancer, first value of the SI cell; for Selectivity for HCT-116 over MCF-7: ratio of MCF-7 to HCT-116 IC50
Experimental: as §1

IC50 ([1]; MTT, 72 h treatment, mean ± SD) | IC50 [3] | IC50 [4] | IC50 (µM) ± S.D. MCF-7 Breast Cancer ([1]; MTT, 72 h treatment, mean ± SD) | SMILES | Selectivity index (IC50 normal fibroblast/IC50 MCF-7) [1] | IC50 [2] | Selectivity index (IC50 normal fibroblast/IC50 HCT-116) [4] | Selectivity for HCT-116 over MCF-7 [4] | Selectivity index (IC50 normal fibroblast/IC50 K-562) [3]
33.1 ± 1.66 µM | > 100 µM | 3.11 ± 0.049 µM | – | O=C(Nc1cccc2c1C(=O)c1ccccc1C2=O)c1ccco1 [Compound 16, N-(9,10-Dihydro-9,10-dioxoanthracen-1-yl)-2-furamide] | > 3.0 | > 100 µM | > 32.2 | 10.6 fold | –
> 100 µM | > 100 µM | 32 ± 0.83 µM | exceptional resistance | O=C(Nc1ccc([N+](=O)[O-])cc1)c1cc2ccccc2[nH]1 [Compound 8, N-(4-Nitrophenyl)-1H-indole-2-carboxamide] | – | > 100 µM | > 3.1 | – | –
70.3 ± 3.52 µM | > 100 µM | 1.01 ± 0.04 µM | – | O=C(Nc1ccccn1)c1cc2ccccc2[nH]1 [Compound 10, N-(Pyridin-2-yl)-1H-indole-2-carboxamide] | > 1.4 | > 100 µM | > 99.4 | 69.6 fold | –
80.8 ± 4.04 µM | 84.6 ± 4.23 µM | 25.4 ± 0.38 µM | – | O=C(Nc1ccc(F)cc1)c1cc2ccccc2[nH]1 [Compound 6, N-(4-Florophenyl)-1H-indole-2-carboxamide] | > 1.2 | > 100 µM | > 3.9 | – | > 1.2
– | 0.33 ± 0.02 µM | 3.98 ± 0.06 µM | – | O=C(Nc1cccc2c1C(=O)c1ccccc1C2=O)c1cc2ccccc2[nH]1 [Compound 12, N-(9,10-Dihydro-9,10-dioxoanthracen-1-yl)-1H-indole-2-carboxamide] | > 11.0 | > 100 µM | > 25.1 | – | > 303
10.6 ± 0.53 µM | 0.61 ± 0.03 µM | 3.94 ± 0.03 µM | – | O=C(Nc1ccc(Cl)cc1)c1cc2ccccc2[nH]1 [Compound 4, N-(4-Chlorophenyl)-1H-indole-2-carboxamide] | > 9.4 | > 100 µM | > 25.4 | – | > 164
7.16 ± 0.36 µM | – | 2.64 ± 0.07 µM | – | O=C(Nc1ccc2c(c1)C(=O)c1ccccc1C2=O)c1cc2ccccc2[nH]1 [Compound 14, N-(9,10-Dihydro-9,10-dioxoanthracen-2-yl)-1H-indole-2-carboxamide] | > 14.0 | > 100 µM | > 37.9 | – | > 164

From PMC12193374, “Exploring Carboxamide Derivatives as Promising Anticancer Agents: Design, In Vitro Evaluation, and Mechanistic Insights” (International Journal of Molecular Sciences, 2025)
